In patent publication US20250319053A1, “INHIBITORS OF THE PEPTIDYL-PROLYL CIS/TRANS ISOMERASE (PIN1), COMBINATIONS AND USES THEREOF” (DANA-FARBER CANCER INSTITUTE, INC., priority 2021, published 2025):

How the values were obtained:
advanced PDAC patients = details: cited from earlier work
splenocytes = test: Immune profiling of splenocytes by flow cytometry; assay type: in vivo, mouse; details: 40 mg/kg i.p. daily for 5 weeks
Method: After filtered, cell lysate was collected. To assess cell surface expressions, cells were harvested by non-enzymatic cell dissociation solution, and resuspend in blocking solution (Cell Staining Buffer, BioLegend). Cells were incubated with following antibodies; […] For FOXP3 staining, cells were fixed and permeabilized using Foxp3/Transcription Factor Staining Buffer Set (00-5523, eBioscience), and incubated with FOXP3-FITC (11-5773-82, Invitrogen) for 30 mins at RT. For Granzyme B staining, cells were fixed and permeabilized using Intracellular Fixation & Permeabilization Kit (88-8824-00, eBioscience), and incubated with Granzyme B-FITC (515403, BioLegend) for 30 mins at RT. All antibodies were diluted according to manufacture instruction. Cells were analyzed using CytoFLEX flow cytometer and CytExpert software (Beckman Coulter, IN, USA). Table 2 is a table of immune profiling of splenocytes from Pin1i−2 treated non-tumor-bearing B6 mice. See also FIG. 1A-FIG. 1G, FIG. 8A-FIG. 8O, and FIG. 9A-9L. WT B6 mice (non-tumor-bearing mice) were treated with vehicle or Pin1i−2 (40 mg/kg, i.p., daily) for 5 weeks, followed by examining the immune profile of splenocytes using flow cytometry (n=5).

[1] = system: WT B6 mice (non-tumor-bearing mice); test: Blood test (CBC, liver, renal) of Pin1i-2 treated non-tumor-bearing B6 mice; assay type: in vivo, mouse; details: for CBC BA: Normal Range 0-2; for CBC EO: Normal Range 0-3.9; for CBC MO: Normal Range 0-7.5; for CBC WBC: Normal Range 1.8-10.7; for Liver Alb: Normal Range 1.95-4.74; for CBC RBC: Normal Range 6.36-9.42; for CBC NE: Normal Range 6.6-38.9; for CBC Hb: Normal Range 11-15.1; for Renal BUN: Normal Range 17-57.5; for Liver ALT: Normal Range 30-206; for CBC LY: Normal Range 55.8-91.6; for CBC PLT: Normal Range 592-2972; for Renal Cre: Normal Range <0.15
Method: (§1) Table 1 is a table of blood test results together with body weight of Pin1i−2 treated non-tumor-bearing B6 mice. See also FIG. 1A-FIG. 1G, FIG. 8A-FIG. 8O, and FIG. 9A-9L. WT B6 mice (non-tumor-bearing mice) were treated with vehicle or Pin1i−2 (20, 40, or 60 mg/kg, i.p., daily) for 5 weeks, followed by examining mice body weight or the RBC, Hb, Plate, and kidney and liver function using blood tests at 3 weeks and 5 weeks (n=5).

[2] = Body weight of Pin1i-2 treated non-tumor-bearing B6 mice; assay type: in vivo, mouse; details: Day 0 = 100
Method: as §1

Nc1ccn([C@@H]2O[C@H](CO)[C@@H](O)C2(F)F)c(=O)n1 [GEM, gemcitabine, reference compound]
overall survival (OS) (advanced PDAC patients): 6.6 month | response rate (advanced PDAC patients): 23.8%

CC(C)(C)CN(C(=O)CCl)C1CCS(=O)(=O)C1 (centres unmarked) [Pin1i−2, sulfopin]
CD3−CD11b+ Myeloid cells (splenocytes; n=5): 6.79 % of CD45+ cell | CD8a+ T-cell (splenocytes; n=5): 14.30 % of CD45+ cell | CD11b+Ly6G+ Myeloid Cells (splenocytes; n=5): 1.71 % of CD45+ cell | CD11c+MHC-II+ DCs (splenocytes; n=5): 1.48 % of CD45+ cell | CD45+CD3+ Cells (splenocytes; n=5): 27.77 % of CD45+ cell | F4/80+ Macrophages (splenocytes; n=5): 3.54 % of CD45+ cell | CTLA4 (splenocytes; listed under CD8a+ T-cell): 76.08 MFI | Lag3 (splenocytes; listed under CD8a+ T-cell): 449.84 MFI | MHC-ClassI (splenocytes; listed under CD8a+ T-cell): 11456.80 MFI | PD-1 (splenocytes; listed under CD8a+ T-cell): 67.90 MFI | PD-L1 (splenocytes; listed under CD11b+Ly6G+ Myeloid Cells): 12447.46 MFI | PD-L1 (splenocytes; listed under CD11c+MHC-II+ DCs): 89012.88 MFI | CBC BA ([1]; 20 mg/kg i.p. daily, 3 weeks): 0.064% | CBC EO ([1]; 20 mg/kg i.p. daily, 3 weeks): 0.204% | CBC MO ([1]; 20 mg/kg i.p. daily, 3 weeks): 8.248% | CBC WBC ([1]; 20 mg/kg i.p. daily, 3 weeks): 7.508 K/uL | Liver Alb ([1]; 20 mg/kg i.p. daily, 3 weeks): 3.375 g/dL | CBC RBC ([1]; 20 mg/kg i.p. daily, 3 weeks): 9.424 M/uL | CBC NE ([1]; 20 mg/kg i.p. daily, 3 weeks): 6.5% | CBC Hb ([1]; 20 mg/kg i.p. daily, 3 weeks): 13.8 g/dL | Renal BUN ([1]; 20 mg/kg i.p. daily, 3 weeks): 31 mg/dL | Liver ALT ([1]; 20 mg/kg i.p. daily, 3 weeks): 41.5 U/L | CBC LY ([1]; 20 mg/kg i.p. daily, 3 weeks): 84.982% | CBC PLT ([1]; 20 mg/kg i.p. daily, 3 weeks): 530.4 K/uL | Renal Cre ([1]; 20 mg/kg i.p. daily, 3 weeks): <0.15 mg/dL | CBC BA ([1]; 20 mg/kg i.p. daily, 5 weeks): 0.044% | CBC EO ([1]; 20 mg/kg i.p. daily, 5 weeks): 0.15% | CBC MO ([1]; 20 mg/kg i.p. daily, 5 weeks): 9.16% | CBC WBC ([1]; 20 mg/kg i.p. daily, 5 weeks): 7.452 K/uL | Liver Alb ([1]; 20 mg/kg i.p. daily, 5 weeks): 2.94 g/dL | CBC RBC ([1]; 20 mg/kg i.p. daily, 5 weeks): 9.228 M/uL | CBC NE ([1]; 20 mg/kg i.p. daily, 5 weeks): 6.134% | CBC Hb ([1]; 20 mg/kg i.p. daily, 5 weeks): 13.38 g/dL | Renal BUN ([1]; 20 mg/kg i.p. daily, 5 weeks): 30.4 mg/dL | Liver ALT ([1]; 20 mg/kg i.p. daily, 5 weeks): 41.4 U/L | CBC LY ([1]; 20 mg/kg i.p. daily, 5 weeks): 84.51% | CBC PLT ([1]; 20 mg/kg i.p. daily, 5 weeks): 612.6 K/uL | Renal Cre ([1]; 20 mg/kg i.p. daily, 5 weeks): <0.15 mg/dL | CBC BA ([1]; 40 mg/kg i.p. daily, 3 weeks): 0.056% | CBC EO ([1]; 40 mg/kg i.p. daily, 3 weeks): 0.156% | CBC MO ([1]; 40 mg/kg i.p. daily, 3 weeks): 8.298% | CBC WBC ([1]; 40 mg/kg i.p. daily, 3 weeks): 4.76 K/uL | Liver Alb ([1]; 40 mg/kg i.p. daily, 3 weeks): 3.6 g/dL | CBC RBC ([1]; 40 mg/kg i.p. daily, 3 weeks): 8.698 M/uL | CBC NE ([1]; 40 mg/kg i.p. daily, 3 weeks): 6.97% | CBC Hb ([1]; 40 mg/kg i.p. daily, 3 weeks): 12.44 g/dL | Renal BUN ([1]; 40 mg/kg i.p. daily, 3 weeks): 28.8 mg/dL | Liver ALT ([1]; 40 mg/kg i.p. daily, 3 weeks): 41.67 U/L | CBC LY ([1]; 40 mg/kg i.p. daily, 3 weeks): 84.522% | CBC PLT ([1]; 40 mg/kg i.p. daily, 3 weeks): 449.2 K/uL | Renal Cre ([1]; 40 mg/kg i.p. daily, 3 weeks): <0.15 mg/dL | CBC BA ([1]; 40 mg/kg i.p. daily, 5 weeks): 0.092% | CBC EO ([1]; 40 mg/kg i.p. daily, 5 weeks): 0.618% | CBC MO ([1]; 40 mg/kg i.p. daily, 5 weeks): 9.158% | CBC WBC ([1]; 40 mg/kg i.p. daily, 5 weeks): 5.876 K/uL | Liver Alb ([1]; 40 mg/kg i.p. daily, 5 weeks): 2.98 g/dL | CBC RBC ([1]; 40 mg/kg i.p. daily, 5 weeks): 9.714 M/uL | CBC NE ([1]; 40 mg/kg i.p. daily, 5 weeks): 8.926% | CBC Hb ([1]; 40 mg/kg i.p. daily, 5 weeks): 13.38 g/dL | Renal BUN ([1]; 40 mg/kg i.p. daily, 5 weeks): 26.4 mg/dL | Liver ALT ([1]; 40 mg/kg i.p. daily, 5 weeks): 46.2 U/L | CBC LY ([1]; 40 mg/kg i.p. daily, 5 weeks): 81.206% | CBC PLT ([1]; 40 mg/kg i.p. daily, 5 weeks): 548.8 K/uL | Renal Cre ([1]; 40 mg/kg i.p. daily, 5 weeks): <0.15 mg/dL | CBC BA ([1]; 60 mg/kg i.p. daily, 3 weeks): 0.078% | CBC EO ([1]; 60 mg/kg i.p. daily, 3 weeks): 0.35% | CBC MO ([1]; 60 mg/kg i.p. daily, 3 weeks): 9.418% | CBC WBC ([1]; 60 mg/kg i.p. daily, 3 weeks): 6.712 K/uL | Liver Alb ([1]; 60 mg/kg i.p. daily, 3 weeks): 3.5 g/dL | CBC RBC ([1]; 60 mg/kg i.p. daily, 3 weeks): 9.858 M/uL | CBC NE ([1]; 60 mg/kg i.p. daily, 3 weeks): 12.606% | CBC Hb ([1]; 60 mg/kg i.p. daily, 3 weeks): 14.76 g/dL | Renal BUN ([1]; 60 mg/kg i.p. daily, 3 weeks): 25.4 mg/dL | Liver ALT ([1]; 60 mg/kg i.p. daily, 3 weeks): 50.5 U/L | CBC LY ([1]; 60 mg/kg i.p. daily, 3 weeks): 77.548% | CBC PLT ([1]; 60 mg/kg i.p. daily, 3 weeks): 700.8 K/uL | Renal Cre ([1]; 60 mg/kg i.p. daily, 3 weeks): <0.15 mg/dL | CBC BA ([1]; 60 mg/kg i.p. daily, 5 weeks): 0.016% | CBC EO ([1]; 60 mg/kg i.p. daily, 5 weeks): 0.304% | CBC MO ([1]; 60 mg/kg i.p. daily, 5 weeks): 10.276% | CBC WBC ([1]; 60 mg/kg i.p. daily, 5 weeks): 5.664 K/uL | Liver Alb ([1]; 60 mg/kg i.p. daily, 5 weeks): 2.72 g/dL | CBC RBC ([1]; 60 mg/kg i.p. daily, 5 weeks): 8.958 M/uL | CBC NE ([1]; 60 mg/kg i.p. daily, 5 weeks): 7.656% | CBC Hb ([1]; 60 mg/kg i.p. daily, 5 weeks): 12.74 g/dL | Renal BUN ([1]; 60 mg/kg i.p. daily, 5 weeks): 22.8 mg/dL | Liver ALT ([1]; 60 mg/kg i.p. daily, 5 weeks): 49.2 U/L | CBC LY ([1]; 60 mg/kg i.p. daily, 5 weeks): 81.742% | CBC PLT ([1]; 60 mg/kg i.p. daily, 5 weeks): 618 K/uL | Renal Cre ([1]; 60 mg/kg i.p. daily, 5 weeks): <0.15 mg/dL | Body weight ([2]; 20 mg/kg i.p. daily, 3 weeks): 105.5371% | Body weight ([2]; 20 mg/kg i.p. daily, 5 weeks): 107.5% | Body weight ([2]; 40 mg/kg i.p. daily, 3 weeks): 107.9% | Body weight ([2]; 40 mg/kg i.p. daily, 5 weeks): 106.7% | Body weight ([2]; 60 mg/kg i.p. daily, 3 weeks): 104.8% | Body weight ([2]; 60 mg/kg i.p. daily, 5 weeks): 107.3%
